The values that follow come from patent US10913766B2, “Liver specific delivery-based entecavir prodrug, nucleoside cyclic phosphate compound, and application thereof” (ZHEJIANG PALO ALTO PHARMACEUTICALS, INC., priority 2017, dated 2021).

Details of data set [1]: species or system Male SD (Sprague-Dawley) rats. The note with it: rat, in vivo, po, 0.036 mmol/kg. As to the method:
Male SD (Sprague-Dawley) rats, weighing 180 to 300 g, were provided by Shanghai Xipuer-Beikai Experimental Animal Co., Ltd. The male animals were acclimatized to the environment for more than 3 days, and fasted for 12 hours overnight before the experiment, but were allowed to drink water. […] Before administration, the animals were checked to determine whether their body weights met the experimental requirements. Twelve rats were selected for grouping, two rats in each group. The drug solutions were administered intragastrically to the rats in an amount of 0.036 mmol/kg. The rats were euthanized with carbon dioxide gas and samples were collected, at 0.5 h, 1 h, 3 h, 6 h, 12 h, and 24 h, respectively. […] The supernatant plasma was taken, to which 10% trichloroacetic acid (containing PMPA as an internal standard, at a concentration of 100 ng/mL) was immediately added as a precipitant at a volume 5 times that of the plasma, to obtain plasma sample solutions. […] Two ceramic beads were added to each of the homogenization tubes for homogenization to obtain tissue homogenate samples. 100 μL of each biological sample was taken, placed in a 1.5 mL test tube, and centrifuged for 5 min. 20 μL of the supernatant was taken and mixed uniformly with 180 μL of water and then analyzed by LC-MS/MS. LC-MS/MS-AJ (Triple Quad 5500, AB SCIEX) was used for analysis of the samples. Chromatographic Column: Acquity UPLC HSS T3 (2.1×50 mm, 1.8 μm); Column Temperature: 40° C.; Flow Rate: 0.5 mL/min. Mobile Phase A: 0.1% formic acid in water, Mobile Phase B: Acetonitrile Solution. The mass spectrometry was performed with an electrospray ionization source (Turbo Ionspray) as an ion source, in a positive ion mode, at a capillary voltage of 3.0 kV, at a temperature of 500° C., and at a desolvation gas flow of 1000 L/h. The scanning time, cone voltage, collision energy, and the ion reaction for quantitative analysis were shown in Table 6 below: The concentration of the metabolite from each of the compounds in the liver was plotted as a function of time on a bar chart.

Data set [2] can be described thus: In-vitro metabolism in mice liver microsomes, release of ETVMP (Example 24). The class given is in vitro ADME, mouse. The note with it: result in words. From the text: (§1) Human liver microsomes (HLM) were purchased from IVT (In Vitro Technologies) (Product No. X008070, Batch No. SSP). Rat liver microsomes (RLM) were purchased from BD with a batch number of 16298, and mice liver microsomes (MLM) were purchased from Research Institute for Liver Diseases (Shanghai) Co., Ltd. (RILD), with a batch number of BQNI.
(§2) The test compounds PA3001, PA3002, PA3003, and PA3004 were synthesized by Zhejiang Palo Alto Pharmaceuticals, Inc., and dissolved in methanol (from Sinopharm Chemical Reagent Co., Ltd.) to prepare storage solutions at a concentration of 25 mM.
(§3) The enzymatic reaction was carried out in a 100 mM KH2PO4 buffer solution (pH 7.4), with a test compound at a concentration of 25 μM, human liver microsomes at a concentration of 2 mg/ml, and NADPH at a concentration of 2 mM. The reaction was initiated by NADPH which was added last. After the reaction was carried out for 5 min in a constant-temperature shaking water bath kettle, methanol at a volume of 1.5 times that of the reaction mixture was added immediately to terminate the reaction.
(§4) Each sample was centrifuged at a maximum speed of 13,600 rpm for 20 minutes using an Eppendorf tabletop centrifuge. The supernatant was taken, and was blow-dried by a nitrogen blower and then re-dissolved in mobile phase A (0.1% formic acid (v/v) in water).
(§5) • Analysis Column: Waters, Acquity UPLC HSS T3 Column • Flow Rate: 0.5 ml/min • Column Temperature: 40 degrees Celsius • III. Mass Spectrometry Condition • Ion Source: Electrospray Ionization Source • Ion Mode: Positive Ion Mode • Capillary Voltage: 3.0 kV • Temperature: 500° C. • Desolvation Gas Flow Rate: […] • Scan Time: 0.025 s • Cone Voltage: 40 V • Collision Energy: 18 eV • Q1 (m/z): 358 • Q3 (m/z): 152
Background: Liver microsomes are a subcellular fraction often used to study metabolism.

Data set [3] in a line: In-vitro metabolism in human liver microsomes, release of ETVMP (Example 24). Conditions: result in words. The class given is in vitro ADME.
Text: as §1, §2, §3, §4, §5

Data set [4] can be described thus: In-vitro metabolism in rat liver microsomes, release of ETVMP (Example 24). The note with it: result in words. The class given is in vitro ADME.
Text: as §1, §2, §3, §4, §5

Data set [5] has as its system hepatitis B virus (HBV). The note with it: read-out: EC50, antiviral activity in vitro; cited from earlier work.
For data set [6], the system named is lamivudine-resistant virus strains. Conditions: read-out: EC50, inhibitory activity against lamivudine-resistant virus strains; cited from earlier work.

Regarding `C=C1[C@H](COP2(=O)OCC[C@H](c3cccc(Cl)c3)O2)[C@@H](O)C[C@@H]1n1cnc2c(=O)[nH]c(N)nc21` (stereo partly drawn) [PA3001], in data set [1], the “AUC0-24 h of ETVMP in Brain Tissue” value stood at 0.2 nmol·h/g, the “AUC0-24 h of ETVMP in Liver” value was determined as 16.2 nmol·h/g and the “AUC0-24 h of ETVMP in Plasma” value is 0.17 nmol·h/g. Also, in data set [2], the “Activated in vitro into monophosphate metabolite ETVMP by mouse liver microsomes” value (“Activated … by mouse liver microsomes” for short) is “activated”. Further, the “Activated in vitro into monophosphate metabolite ETVMP by human liver microsomes” value (“Activated … by human liver microsomes” below) in data set [3] is “activated”. In addition, the “Activated in vitro into monophosphate metabolite ETVMP by rat liver microsomes” value (shortened to “Activated … by rat liver microsomes”) in data set [4] is reported as “activated”.

As to `C=C1[C@H](COP2(=O)OCC[C@H](c3ccncc3)O2)[C@@H](O)C[C@@H]1n1cnc2c(=O)[nH]c(N)nc21` (stereo partly drawn) [PA3003], in data set [1], the “AUC0-24 h of ETVMP in Brain Tissue” value turned out to be 1.1 nmol·h/g, the “AUC0-24 h of ETVMP in Liver” value turned out to be 18.9 nmol·h/g and the “AUC0-24 h of ETVMP in Plasma” value was 0.19 nmol·h/g. The “Activated … by mouse liver microsomes” value in data set [2] is on record as “activated”. In addition, the “Activated … by human liver microsomes” value in data set [3] is on record as “activated”. Also, the “Activated … by rat liver microsomes” value in data set [4] was “activated”.

Usually EC50 stands for the midpoint of the concentration-response curve. Consider `C=C1[C@@H](CO)[C@@H](O)C[C@@H]1n1cnc2c(=O)[nH]c(N)nc21` [ETV, 2-amino-9-[(1S,3S,4S)-4-hydroxy-3-hydroxymethyl-2-methylenecyclopentyl]-1,9-dihydro-6H-purine-6-one, reference compound], for which the EC50 in data set [5] was 4 nM. Moreover, the concentration giving a half-maximal response (EC50) in data set [6] is 10 to 59 nM. Besides, in data set [1], the “AUC0-24 h of ETVMP in Liver” value was 16.6 nmol·h/g and the “AUC0-24 h of ETVMP in Plasma” value was 0.55 nmol·h/g.

Consider `C=C1[C@H](COP2(=O)OCC[C@H](c3cc(Cl)ccc3F)O2)[C@@H](O)C[C@@H]1n1cnc2c(=O)[nH]c(N)nc21` (stereo partly drawn) [PA3004], for which, in data set [1], the “AUC0-24 h of ETVMP in Liver” value turned out to be 11.6 nmol·h/g and the “AUC0-24 h of ETVMP in Plasma” value stood at 0.09 nmol·h/g. The “Activated … by mouse liver microsomes” value in data set [2] is recorded as “activated”. In data set [2] (Table 3), the “Rank of conversion rate among tested compounds, mouse liver microsomes” value is recorded as “highest rate”. Also, in data set [3], the “Activated … by human liver microsomes” value is “activated” and the “Efficiency of activation by human liver microsomes into ETVMP compared with comparative compound PA3001” value is listed as “significantly greater”. The “Rank of conversion rate among tested compounds, human liver microsomes” value in data set [3] (Table 3) is given as “highest rate”. Besides, in data set [4], the “Activated … by rat liver microsomes” value was “activated”. Moreover, in data set [4] (Table 3), the “Rank of conversion rate among tested compounds, rat liver microsomes” value was “highest rate”.

Regarding `C=C1[C@H](COP2(=O)OCC[C@H](c3cc(Cl)ccc3Cl)O2)[C@@H](O)C[C@@H]1n1cnc2c(=O)[nH]c(N)nc21` (stereo partly drawn) [PA3017], in data set [1], the “AUC0-24 h of ETVMP in Liver” value worked out at 9.0 nmol·h/g and the “AUC0-24 h of ETVMP in Plasma” value was 0.08 nmol·h/g.

For `C=C1[C@H](COP2(=O)OCC[C@H](c3cc(F)cc(Cl)c3)O2)[C@@H](O)C[C@@H]1n1cnc2c(=O)[nH]c(N)nc21` (stereo partly drawn) [PA3002], in data set [1], the “AUC0-24 h of ETVMP in Liver” value was found to be 8.1 nmol·h/g and the “AUC0-24 h of ETVMP in Plasma” value turned out to be 0.03 nmol·h/g. Also, the “Efficiency of activation by human liver microsomes into ETVMP compared with comparative compound PA3001” value in data set [3] is reported as “significantly greater”.
